Assay results reported in patent US9962367B2, “Oral formulations of pyrrolidine derivatives” (ObsEva S.A., priority 2013, dated 2018).

Assay: Qualitative solubility/crystallisation tests on 15 mg scale
Type: physicochemical

Compound: CO/N=C1/C[C@@H](CO)N(C(=O)c2ccc(-c3ccccc3C)cc2)C1 [(3Z,5S), (3Z,5S)-5-(hydroxymethyl)-1-[(2′-methyl-1,1′-biphenyl-4-yl)carbonyl]pyrrolidin-3-one-O-methyloxime]
- Dissolves in (solvent DIPE, hot): 40 vol hot
- Dissolves in (solvent IPA, hot): 4 vol hot
- Dissolves in (solvent MIBK, hot): 4 vol hot
- Dissolves in (solvent THF, cold): 4 vol cold
- Dissolves in (solvent tBuOH, hot): 6 vol hot
- Dissolves in (solvent toluene, cold): 2 vol cold
